From patent US7294630B2, “Piperazinyl piperidine tachykinin antagonists” (SmithKline Beecham Corporation, priority 2000, dated 2007)
Where a name gives a salt, the structure may show the parent alone.

What was measured:
[1] = biological target: T1, recombinant human NK1 receptors expressed in Chinese Hamster Ovary (CHO) cell membranes (Homo sapiens, UniProt P25103); experiment: NK1-receptor binding affinity, displacement of [3H]-substance P; conditions: average of at least two determinations, [3H]substance P displacement; for Ki: read-out: pki (negative logarithm of the inhibition constant Ki) (converted)
T1 construct: expressed in transfected cells; host or cells: Chinese Hamster Ovary (CHO) cells, membrane preparation
Protocol: CHO cell membranes were prepared by using a modification of the method described by Dam T and Quirion R (Peptides, 7:855-864, 1986). Thus ligand binding was performed in 0.4 ml of 50 mM HEPES, pH 7.4, containing 3 mM MnCl2, 0.02% BSA, 0.5 nM [^3H]Substance P (30÷56 Ci/mmol, Amersham), a final membrane concentration of 25 μg of protein/ml, and the test compounds. The incubation proceeded at room temperature for 40 min.
The affinity of the compound of the invention for NK1 receptor was determined using the NK1-receptor binding affinity method measuring in vitro by the compounds' ability to displace [3H]—substance P (SP) from recombinant human NK1 receptors expressed in Chinese Hamster Ovary (CHO) cell membranes. The affinity values are expressed as negative logarithm of the inhibition constant (Ki) of displacer ligands (pKi).

NK1 receptor = biological target: T2, NK1 receptor (Meriones unguiculatus, UniProt Q5DUB1); experiment: gerbil foot tapping model (NK1 agonist icv); format: in vivo; conditions: read-out: ED50 (dose required to inhibit by 50% the tapping induced by the NK1 agonist), oral administration, four hours before NK1 agonist 3 pmol icv
T2 construct: from tissue; host or cells: living gerbil, central nervous system (NK1 agonist infused into the cerebral ventricles)
Source text: The action of the compounds of the invention at the NK1 receptor may be determined by using conventional tests.
The ability of the compounds of the invention to penetrate the central nervous system and to bind at the nk1 receptor may be determined using the gerbill foot tapping model as described by Rupniak & Williams, Eur. Jour. of Pharmacol., 1994.
The compound was orally administered and four hours later an NK1 agonist (e.g. delta-Aminovaler^6[Pro^9,Me-Leu^10]-substance P (7-11)) (3 pmol in 5 μicv) was infused directly in the cerebral ventricules of the animals. The duration of hind foot tapping induced by the NK1 agonist (e.g. delta-Aminovalery^6[Pro^9,Me-Leu^10]-substance P (7-11)) was recorded continuously for 3 min using a stopclock. […] Alternatively the compounds may be administered subcutaneously or intraperitoneally.

T2 sequence (Q5DUB1 whole entry, the tested form may be a part): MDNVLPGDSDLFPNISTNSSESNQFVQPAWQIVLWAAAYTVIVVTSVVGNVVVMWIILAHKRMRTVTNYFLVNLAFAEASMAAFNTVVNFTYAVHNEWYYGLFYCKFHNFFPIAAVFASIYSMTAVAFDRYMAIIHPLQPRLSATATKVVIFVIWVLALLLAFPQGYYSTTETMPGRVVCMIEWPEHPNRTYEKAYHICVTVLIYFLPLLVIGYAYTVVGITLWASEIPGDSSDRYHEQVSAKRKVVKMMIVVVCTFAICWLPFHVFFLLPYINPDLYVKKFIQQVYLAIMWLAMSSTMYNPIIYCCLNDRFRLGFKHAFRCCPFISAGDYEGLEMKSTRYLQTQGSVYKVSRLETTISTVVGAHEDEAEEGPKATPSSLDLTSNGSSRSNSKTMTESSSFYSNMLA
T1 sequence (P25103 whole entry): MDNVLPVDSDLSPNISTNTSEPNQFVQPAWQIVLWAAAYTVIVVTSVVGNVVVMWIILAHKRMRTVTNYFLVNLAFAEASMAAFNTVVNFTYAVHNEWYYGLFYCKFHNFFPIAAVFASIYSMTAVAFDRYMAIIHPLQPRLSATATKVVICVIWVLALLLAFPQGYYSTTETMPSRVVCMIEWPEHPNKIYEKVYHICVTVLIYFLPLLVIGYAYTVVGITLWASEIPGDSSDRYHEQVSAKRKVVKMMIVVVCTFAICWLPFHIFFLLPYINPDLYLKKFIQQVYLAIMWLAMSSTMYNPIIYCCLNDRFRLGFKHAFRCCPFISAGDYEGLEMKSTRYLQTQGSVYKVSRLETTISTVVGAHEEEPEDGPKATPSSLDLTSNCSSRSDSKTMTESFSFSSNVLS

Compound | Ki [1] [nM] | further results
2-(R)-(4-Fluoro-2-methyl-phenyl)-4-(S)-piperazin-1-yl-piperidine-1-carboxylic acid, [1-(R)-(3,5-bis-trifluoromethyl-phenyl)-ethyl]-methylamide hydrochloride [Example 9] |  | pki (negative logarithm of the inhibition constant Ki) [1]: 9.93
Cc1cc(F)ccc1[C@H]1CC(N2CCN(C)CC2)CCN1C(=O)N(C)[C@H](C)c1cc(C(F)(F)F)cc(C(F)(F)F)c1 (mixture of isomers) [Example 8, 2-(R)-(4-Fluoro-2-methyl-phenyl)-4-(R,S)-(4-methyl-piperazin-1-yl)-piperidine-1-carboxylic acid, [1-(R)-(3,5-bis-trifluoromethyl-phenyl)-ethyl]-methylamide hydrochloride] | 0.209 | 
CC(=O)N1CCN([C@H]2CCN(C(=O)N(C)[C@H](C)c3cc(C(F)(F)F)cc(C(F)(F)F)c3)[C@@H](c3ccc(F)cc3)C2)CC1 [Example 19, 4-(S)-(4-Acetyl-piperazin-1-yl)-2-(R)-(4-fluoro-phenyl)-piperidine-1-carboxylic acid, [1-(R)-(3,5-bis-trifluoromethyl-phenyl)-ethyl]-methylamide hydrochloride] | 0.417 | 
CC(=O)N1CCN([C@H]2CCN(C(=O)N(C)[C@H](C)c3cc(C(F)(F)F)cc(C(F)(F)F)c3)[C@@H](c3ccc(F)cc3C)C2)CC1.Cl [Example 3, 4-(S)-(4-Acetyl-piperazin-1-yl)-2-(R)-(4-fluoro-2-methyl-phenyl)-piperidine-1-carboxylic acid, [1-(R)-(3,5-bis-trifluoromethyl-phenyl)-ethyl]-methylamide hydrochloride] |  | ED50 (NK1 receptor): 0.05 mg/kg
Cc1cc(F)ccc1[C@H]1C[C@@H](N2CCN(C(=O)C3CC3)CC2)CCN1C(=O)N(C)[C@H](C)c1cc(C(F)(F)F)cc(C(F)(F)F)c1.Cl [Example 12, 4-(S)-(4-Cyclopropanoyl-piperazin-1-yl)-2-(R)-(4-fluoro-2-methyl-phenyl)-piperidine-1-carboxylic acid, [1-(R)-(3,5-bis-trifluoromethyl-phenyl)-ethyl]-methylamide hydrochloride] | 0.123 | ED50 (NK1 receptor): 0.27 mg/kg
Cc1cc(F)ccc1[C@H]1C[C@@H](N2CCN(C(=O)C(C)C)CC2)CCN1C(=O)N(C)[C@H](C)c1cc(C(F)(F)F)cc(C(F)(F)F)c1 [Example 14, 4-(S)-[4-(2-Methyl-propanoyl)-piperazin-1-yl]-2-(R)-(4-fluoro-2-methyl-phenyl)-piperidine-1-carboxylic acid, [1-(R)-(3,5-bis-trifluoromethyl-phenyl)-ethyl]-methylamide hydrochloride] | 0.1 | 

Now from value to compound, other results behind:

Ki [1] [nM] | Compound | further results
0.0437 | CNC(=O)N1CCN([C@H]2CCN(C(=O)N(C)Cc3cc(C(F)(F)F)cc(C(F)(F)F)c3)[C@@H](c3ccc(F)cc3C)C2)CC1 [Example 16, 4-(S)-[1-[(3,5-Bis-trifluoromethyl-benzyl)-methyl-carbamoyl]-2-(R)-(4-fluoro-2-methyl-phenyl)-piperidin-4-yl]-1-carboxylic acid, methylamide hydrochloride] | 
0.0457 | Cc1cc(F)ccc1[C@H]1C[C@@H](N2CCN(C(=O)N(C)C)CC2)CCN1C(=O)N(C)Cc1cc(C(F)(F)F)cc(C(F)(F)F)c1 [Example 15, 4-(S)-[1-[(3,5-Bis-trifluoromethyl-benzyl)-methyl-carbamoyl]-2-(R)-(4-fluoro-2-methyl-phenyl)-piperidin-4-yl]-piperazine-1-carboxylic acid, dimethylamide hydrochloride] | 
0.0741 | CC(=O)N1CCN([C@H]2CCN(C(=O)N(C)Cc3cc(C(F)(F)F)cc(C(F)(F)F)c3)[C@@H](c3ccc(F)cc3C)C2)CC1.Cl [Example 7b, 4-(S)-(4-Acetyl-piperazin-1-yl)-2-(R)-(4-fluoro-2-methyl-phenyl)-piperidine-1-carboxylic acid, (3,5-bis-trifluoromethyl-benzyl)-methylamide hydrochloride] | ED50 (NK1 receptor): 0.19 mg/kg
0.115 | Cc1cc(F)ccc1[C@H]1CC(N2CCN(C)CC2)CCN1C(=O)N(C)Cc1cc(C(F)(F)F)cc(C(F)(F)F)c1.Cl.Cl (mixture of isomers) [Example 10, 2-(R)-(4-Fluoro-2-methyl-phenyl)-4-(R,S)-(4-methyl-piperazin-1-yl)-piperidine-1-carboxylic acid, (3,5-bis-trifluoromethyl-benzyl)-methylamide dihydrochloride] | melting point: 208 to 209 °C
0.708 | CC(=O)N1CCN([C@@H]2CCN(C(=O)N(C)Cc3cc(C(F)(F)F)cc(C(F)(F)F)c3)[C@@H](c3ccc(F)cc3C)C2)CC1 [Example 7a, 4-(R)-(4-Acetyl-piperazin-1-yl)-2-(R)-(4-fluoro-2-methyl-phenyl)-piperidine-1-carboxylic acid, (3,5-bis-trifluoromethyl-benzyl)-methylamide hydrochloride] | 
